Laboratory results from patent US20070225518A1, “5-Aminolevulinic acid salts and their use” (priority 2006, published 2007).
“Also recorded” adds a separate entry of the source.

Experiments:
[1] = test system: Friend erythroleukemia cells (FLC); experiment: Stability of stored ALA salt solutions, read out as porphyrin formation in FLC by flow cytometry; format: cell-based; conditions: for Stability in aqueous and non-aqueous media: aqueous as well as non-aqueous media such as PEG; for Stability of solutions on storage (porphyrin formation in cells): 0.1 mg/ml, 7 days at 4° C. and at 37° C.
Method: (§1) Flow cytometry for cellular PpIX. […] After the incubation, the cells were washed with Ca^+2—Mg+^2 free PBS and scraped off with a rubber policeman. After a 10 min centrifugation at 1100 RPM, the supernatant was decanted and the pellet was resuspended in 0.5 ml Ca^+2—Mg^+2 free PBS. The cell suspension was filtered and measured using a Fluorescence Activated Cell Sorter (Becton Dickinson FACS Calibur, Mountain View, Calif., USA). 10,000 cells were measured in each sample using an excitation wavelength of 488 nm, and emission >600 nm, respectively.
. […] (a), 37° C. (b), or after no storage (c). In controls (d), no ALA salt was presented to the cells. The cells were then examined for the presence of PpIX by flow cytometry at […]. […]

[2] = test system: Friend erythroleukemia cells (FLC); experiment: PpIX formation in FLC by HPLC analysis of extracted porphyrins; format: cell-based; conditions: 0.1 mg/ml, 4 h, retention time typical of PpIX
Method: (§2) Cell culture. Friend erythroleukemia cells (FLC) and B16 melanoma cells were grown in a DMEM medium and RPMI 1640, respectively, (Biological Industries, Beit-Haemek, Israel), supplemented with 10% fetal calf serum and antibiotics, on tissue culture plates (Corning, Cambridge, Mass., USA) and incubated at 37° C. in a humidified atmosphere with 8% CO2. The cells were re-cultured twice a week.
(§3) Extraction of porphyrins from cells. FLC were incubated with 0.1 mg/ml ALA-HCl, AN 301, or AN 302 for 4 h. The cells were then washed and suspended in 750 μl glacial acetic acid. The cells were then sonicated on ice, at an amplitude of 1-2, three times for 45 sec, with 15 sec between successive sonications. Following the sonication, the lysate was transferred to glass test tubes containing 2.25 ml ethyl acetate, vigorously vortexed and centrifuged for 15 min at 3000 rpm. 2.6 ml of the supernatant were then transferred to glass test tubes containing 500 μl/1000 μl 1 M HCl and incubated overnight at 4° C. in the dark. Two phases formed, a lower inorganic phase and an upper organic phase containing the porphyrins. 300-700 μl from the organic phase was carefully removed with a Pasteur pipet. The porphyrins were then examined by HPLC and by spectroscopy.
High pressure liquid chromatograph [HPLC] analysis of porphyrins. Extracted porphyrins were purified by HPLC on an Apex Presil C18 8μ column (Jones, Chromatography, Lakewood, Colo.) using a 0-50% linear gradient aetonitrile (+0.1% trifluoroacetic acid) over 40-min elution at 47% acetonitrile.

[3] = test system: Friend erythroleukemia cells (FLC); experiment: PpIX formation in FLC by fluorescence spectroscopy of extracted porphyrins; format: cell-based; conditions: 0.1 mg/ml, 4 h, excitation 410 nm, characteristic major peak at 633
Method: as §2, §3
Fluorometry of porphyrins. Fluorescence spectroscopy of the extrated porphyrins was examined using a SLM-Aminco spectrometer. Emission spectra were recorded following excitation at 410 nm.

[4] = test system: Friend erythroleukemia cells (FLC); experiment: Flow cytometry for cellular PpIX after uptake of ALA salt; format: cell-based; conditions: stock solutions in H2O, PEG, buffer pH7
Method: as §2, §1
. Stock solutions of the ALA salt were made up in (a) H2O, (b) PEG, and (c) buffer pH7. […]. The ALA salt was then presented to the cells, and biosynthesis of PpIX was determined by flow cytometry. In controls (d) no ALA salt was presented to the cells. Typical results are shown in FIG. 3 in which the horizontal axis is florescence intensity (in arbitrary units), and the vertical axis is the number of cells having a given intensity level. […]

B16 melanoma cells = experiment: ALA treatment, photosensitization and MTT assay; format: cell-based; conditions: 0.6 mM, 4 hr, irradiation 360-410 nm, MTT after 24 hr
Method: as §2
ALA treatment and photosensitization. […] At the end of the incubation period, the cells were irradiated using a Vilber Lourmat lamp, VL-206BL, delivering a power density of 22.5 mW at 360-410 nm. Light intensity was measured with a Nova photometer (Ophir Optronics, Jerusalem).
MTT assay. The effect of PDT on cell viability was measured after 24 hr. by a modified MTT assay which is based on the ability of live cells to cleave the tetrazolium ring to a molecule that absorbs at 590 nm in active mitochondria (Mosmann, 1983). 2×10^3 cells were grown in 96-well plates. The growth medium was replaced and 20 μl MTT (3-(4,5-dimethylthiazol-2-yl)-2,5-diphenyl tetrazolium bromide), 5 mg/ml PBS (Sigma, Chemical Co, St. Louis, Mo., USA), were added to each well. The cells were further incubated at 37° C. for 2 h. For lysis of the cells, N,N-dimethyformamide was added to the media for 5 hours and absorbance was then measured at 590 nm.

[5] = background statement, cited from earlier work
[6] = stock solution stored 7 days, 4° C.
[7] = stock solution stored 7 days, 37° C.

SMILES	Stability in aqueous and non-aqueous media [1]	PpIX formation in the cells as determined by HPLC [2]	PpIX formation in the cells by spectroscopy [3]	formation of PpIX inside the cells by flow cytometry [4]	Stability of solutions on storage (porphyrin formation in cells) [1]	porphyrin formation in FLC by flow cytometry [1, 6]	porphyrin formation in FLC by flow cytometry [1, 7]	porphyrin formation in FLC by flow cytometry ([1]; stock solution, storage time 0)	Cell death / viability (MTT activity) following illumination (B16 melanoma cells)	Stability of solutions on storage (porphyrin formation in cells) ([1]; benzenesulfonate)	Solubility in stock solution solvents (H2O, PEG, and buffer pH7)	Lipid solubility PEG (PEG)	Solubility in aqueous and non-aqueous media (aqueous as well as non-aqueous media such as PEG)	Solubility in aqueous media ([5]; aqueous media)	Solubility in organic solvents including polyethylene glycol (PEG) ([5]; organic solvents including PEG)
NCC(=O)CCC(=O)O.O=S(=O)(O)c1ccc2ccccc2c1 [AN-302, 5-Amino-4-oxopentanoic acid 2-naphtylsulfonate]	stable	–	–	–	–	–	–	–	–	–	–	–	–	–	–
NCC(=O)CCC(=O)O [AN-302, 5-Amino-4-oxopentanoic acid 2-naphtylsulfonate]	–	same porphyrin (PpIX) was generated	same porphyrin product was generated	leads to the formation of PpIX inside the cells	stable; also recorded: retained significant activity	23 arbitrary units	29 arbitrary units	49 arbitrary units	as effective as ALA-HCl in causing cell death	–	–	–	–	–	–
NCC(=O)CCC(=O)O.O=S(=O)(O)c1ccccc1 [AN-301, 5-Amino4-oxopentanoic acid benzenesulfonate]	stable	same porphyrin (PpIX) was generated	same porphyrin product was generated	leads to the formation of PpIX inside the cells	–	39 arbitrary units	39 arbitrary units	57 arbitrary units	as effective as ALA-HCl in causing cell death	stable; also recorded: retained significant activity	soluble in each of these three solvents	soluble in PEG	soluble	–	–
Cl.NCC(=O)CCC(=O)O [ALA-HCl, reference compound]	–	same porphyrin (PpIX) was generated	same porphyrin product was generated	–	completely degraded	3.5 arbitrary units	3.5 arbitrary units	60 arbitrary units	–	–	–	–	–	soluble	insoluble
